Assay results as given in PMC9320114 (Molecules, 2022).
Where two headings read alike, the source gives them in different places.

What was measured:
[1] = target: T1, murine acetylcholinesterase (mAChE) (Mus musculus, UniProt P21836); experiment: biochemical; format: biochemical; details: for remaining activity at 10 µM: residual activity at 10 µM, read-out: mAChE RA (%)
T1 sequence (P21836 32-614): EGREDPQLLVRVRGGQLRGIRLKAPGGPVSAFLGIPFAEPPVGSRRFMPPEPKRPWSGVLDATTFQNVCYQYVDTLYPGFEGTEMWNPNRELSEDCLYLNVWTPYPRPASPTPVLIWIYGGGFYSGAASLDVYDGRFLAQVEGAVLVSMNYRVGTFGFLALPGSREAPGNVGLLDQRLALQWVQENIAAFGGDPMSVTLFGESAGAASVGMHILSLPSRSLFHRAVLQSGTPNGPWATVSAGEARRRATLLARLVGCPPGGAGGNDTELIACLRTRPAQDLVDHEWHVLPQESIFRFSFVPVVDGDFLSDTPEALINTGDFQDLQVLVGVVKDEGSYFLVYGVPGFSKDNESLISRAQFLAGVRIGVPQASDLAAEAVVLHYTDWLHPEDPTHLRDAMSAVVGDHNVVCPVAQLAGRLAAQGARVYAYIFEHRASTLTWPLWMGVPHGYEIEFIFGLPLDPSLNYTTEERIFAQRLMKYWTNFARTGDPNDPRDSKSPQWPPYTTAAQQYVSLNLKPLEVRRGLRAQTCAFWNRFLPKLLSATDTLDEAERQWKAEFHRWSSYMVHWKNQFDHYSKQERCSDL
Description: (§1) Enzyme solutions were prepared by diluting the concentrated enzyme stock solutions (4.6 mg/mL in 10 mM MES-NaOH buffer, pH 6.5) in a sodium phosphate-buffered solution (0.1 M, pH 8.0). […] The final organic solvent (DMSO) content was always 1% (v/v). Reactions were initiated by adding the substrate to the enzyme and inhibitor, which were preincubated for 5 min. […] To determine the blank value (b), the enzyme solution was replaced by a phosphate-buffered solution. The initial velocity (v) was calculated from the slope of the linear trend obtained, with each measurement performed in triplicate. The inhibitory potencies were expressed as RA=(vi − b)/(vo − b), where vi is the velocity in the presence of the test compounds and vo is the control velocity in the presence of DMSO. Seven different concentrations of each compound were used for the IC50 measurements. IC50 values were obtained by plotting the residual enzyme activities against the applied inhibitor concentrations, fitting the experimental data to the 4-parameter Hill equation:(1) Y=Bottom+(Top−Bottom)/1+10^((LogIC50−X)×Hill Slope) where X is the logarithm of the inhibitor concentration, and Y is the residual activity. GraphPad Prism 8.2.0 (GraphPad Software, San Diego, CA, USA) was used for the fitting procedure.

[2] = target: human butyrylcholinesterase (hBChE) (Homo sapiens, UniProt P06276); experiment: biochemical; format: biochemical; details: for IC50: read-out: hBChE IC50; for remaining activity at 10 µM: read-out: hBChE RA (%)
Chain of human butyrylcholinesterase (hBChE) (P06276 29-602): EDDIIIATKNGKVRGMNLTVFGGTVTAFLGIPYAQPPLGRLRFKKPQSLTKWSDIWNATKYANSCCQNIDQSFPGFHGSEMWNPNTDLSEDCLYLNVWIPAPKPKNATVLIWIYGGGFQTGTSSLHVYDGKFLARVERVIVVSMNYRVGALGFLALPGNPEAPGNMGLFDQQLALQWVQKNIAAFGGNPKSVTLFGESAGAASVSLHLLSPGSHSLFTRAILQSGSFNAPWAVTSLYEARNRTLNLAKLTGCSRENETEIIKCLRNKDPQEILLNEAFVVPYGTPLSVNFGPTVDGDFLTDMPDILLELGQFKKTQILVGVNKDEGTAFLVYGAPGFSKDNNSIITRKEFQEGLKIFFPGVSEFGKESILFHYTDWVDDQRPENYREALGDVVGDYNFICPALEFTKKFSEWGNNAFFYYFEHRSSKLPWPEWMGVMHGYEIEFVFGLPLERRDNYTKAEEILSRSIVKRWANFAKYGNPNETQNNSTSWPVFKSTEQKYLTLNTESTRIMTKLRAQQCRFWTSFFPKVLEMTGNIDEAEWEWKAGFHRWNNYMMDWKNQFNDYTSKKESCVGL
Description: as §1

MurA = MurA (Escherichia coli, UniProt P0A749); experiment: Inhibition of MurA, colorimetric malachite green method; format: biochemical, bacterial; details: Table 1; for IC50: read-out: MurA IC50; for MurA RA (%): residual activity at 100 µM
Chain of MurA (P0A749 whole entry): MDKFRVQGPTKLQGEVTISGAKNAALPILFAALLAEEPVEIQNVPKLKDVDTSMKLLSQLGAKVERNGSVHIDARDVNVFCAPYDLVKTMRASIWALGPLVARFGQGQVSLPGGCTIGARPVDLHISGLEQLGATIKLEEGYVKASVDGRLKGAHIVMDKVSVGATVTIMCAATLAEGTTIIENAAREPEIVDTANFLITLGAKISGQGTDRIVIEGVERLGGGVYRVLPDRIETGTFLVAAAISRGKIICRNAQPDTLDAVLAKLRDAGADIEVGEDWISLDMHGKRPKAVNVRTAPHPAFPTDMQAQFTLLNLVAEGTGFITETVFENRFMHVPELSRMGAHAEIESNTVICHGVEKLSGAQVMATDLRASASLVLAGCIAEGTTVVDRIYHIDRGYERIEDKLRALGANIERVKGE
Description: Inhibition of Mur enzymes was monitored with the colorimetric malachite green method, which measured orthophosphate formed during reaction. The mixtures with a final volume of 50 µL contained:
MurA: 50 mM HEPES-NaOH, pH 7.8, 0.005% Triton X-114, 200 µM uridine-diphosphate-N-acetylglucosamine, 100 µM phosphoenolpyruvate, purified MurA, and 50 or 100 µM of each compound tested.
All compounds were soluble in the assay mixtures containing 5% DMSO (v/v). After incubation for 15 min (20 min for DdlB) at 37 °C, the enzyme reaction was terminated by addition of Biomol® reagent (100 µL) and absorbance was measured after 5 min at 650 nm (Synergy™ H4 microplate reader; BioTek Instruments, Inc., BioTek Gen5 Data Analysis Software, version 2.9, Santa Clara, CA, USA). All experiments were performed in duplicate.

hMAO-B = target: T2, hMAO-B (Homo sapiens, UniProt P27338); experiment: biochemical; details: residual activity at 10 µM; Table 3
T2 construct: purchased Sigma Aldrich; host or cells: BTI-TN-5B1-4 baculovirus-infected insect cells
T2 sequence (P27338 1-520): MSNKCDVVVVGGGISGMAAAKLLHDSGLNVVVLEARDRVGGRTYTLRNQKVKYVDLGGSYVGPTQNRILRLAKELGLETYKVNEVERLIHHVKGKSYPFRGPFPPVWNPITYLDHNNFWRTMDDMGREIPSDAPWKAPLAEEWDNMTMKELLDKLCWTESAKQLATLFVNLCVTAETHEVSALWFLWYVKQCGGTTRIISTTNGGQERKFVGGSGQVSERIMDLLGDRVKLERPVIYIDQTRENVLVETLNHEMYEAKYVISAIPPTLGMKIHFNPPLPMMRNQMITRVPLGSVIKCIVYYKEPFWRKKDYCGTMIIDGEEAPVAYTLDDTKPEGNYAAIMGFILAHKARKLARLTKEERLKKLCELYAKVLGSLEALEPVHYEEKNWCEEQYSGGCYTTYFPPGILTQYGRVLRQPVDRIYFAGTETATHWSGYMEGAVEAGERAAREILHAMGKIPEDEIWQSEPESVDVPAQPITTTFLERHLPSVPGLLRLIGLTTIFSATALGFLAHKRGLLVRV
Source text: The effects of the compounds on hMAO-A and hMAO-B were investigated using a fluorimetric assay, following a method previously described in the literature. Recombinant human microsomal hMAO enzymes expressed in BTI-TN-5B1-4 baculovirus-infected insect cells, horseradish peroxidase (HRP, type II, lyophilized powder), and p-tyramine hydrochloride were purchased from Sigma Aldrich. 10-Acetyl-3,7-dihydroxyphenoxazine (Amplex Red reagent) was synthesized as described in the literature.
After preincubation, the reaction was started by adding final concentrations of 200 µM Amplex Red reagent, 2 U/mL HRP, and 1 mM p-tyramine hydrochloride. Resorufin production was quantified based on the fluorescence produced (λex = 530 nm; λem = 590 nm) at 37 °C over a 20 min period. For the control experiments, DMSO was used instead of appropriate dilutions of the compounds in DMSO. For the determination of blank (b), the enzyme solution was replaced by a phosphate-buffered solution. Initial velocities were calculated from the obtained trend, with each measurement performed in duplicate. Specific fluorescence emission to determine the final results was calculated after subtracting the blank activity (b). Inhibitory potencies were expressed as RAs, and IC50 values were calculated as described in the section “Inhibition of hBChE and mAChE” above.

[3] = residual activity at 10 µM, Table 4

For `CCCCc1ccc(C#Cc2ccc(CN(CC3CC3)c3ccc(O)c(C(=O)O)c3)cc2)cc1` [Compound 5], the IC50 [1] was 1100 ± 100 nM, the “mAChE RA (%)” value [1] was 2% and the “hBChE RA (%)” value [2] was 16%. For the same compound, the IC50 [2] was 2400 ± 200 nM, the IC50 (MurA; IC50 ± SEM) was 7000 ± 3000 nM and the “MurA RA (%)” value (MurA) was 0%.

In the case of `O=C(O)c1cccc2[nH]cc(CCCCN3CC=C(c4ccccc4)CC3)c12` [Compound 32], the remaining activity at 10 µM ([1]; Table 4) is reported as 71%, the IC50 ([2]; Table 4, IC50 ± SEM) is reported as 14500 ± 2200 nM and the remaining activity at 10 µM [2, 3] is reported as 49%.

With `CC(C)(C)c1ccc(C#Cc2ccc(CN(CC3CC3)c3ccc(O)c(C(=O)O)c3)cc2)cc1` [Compound 2] the “mAChE RA (%)” value [1] was 99%, the “hBChE RA (%)” value [2] was 100% and the “MurA RA (%)” value (MurA) was 64%.

`CC(C)c1ccc2[nH]cc(CCCCN3CC=C(c4ccccc4)CC3)c2c1` [Compound 31] was tested, and the IC50 ([1]; Table 4, IC50 ± SEM) was 14000 ± 4000 nM, the remaining activity at 10 µM ([1]; Table 4) was 44% and the IC50 ([2]; Table 4, IC50 ± SEM) was 59.9 ± 5.5 nM. For the same compound, the remaining activity at 10 µM [2, 3] was 0%.

`Oc1ccc2c(CCCCN3CC=C(c4ccccc4)CC3)c[nH]c2c1` [Compound 33] showed a remaining activity at 10 µM ([1]; Table 4) of 61%, an IC50 ([2]; Table 4, IC50 ± SEM) of 267 ± 1 nM and a remaining activity at 10 µM [2, 3] of 3%.

Work on `COc1ccc2[nH]cc(CCCCN3CCc4c([nH]c5ccc(OC)cc45)C3)c2c1` [Compound 37] yielded a remaining activity at 10 µM ([1]; Table 4) of 88%, an IC50 ([2]; Table 4, IC50 ± SEM) of 2300 ± 100 nM and a remaining activity at 10 µM [2, 3] of 23%.

In the case of `CCCCCCN(Cc1ccc(C#Cc2ccc(C(C)(C)C)cc2)cc1)c1ccc(F)c(C(=O)O)c1` [Compound 8], the IC50 [1] is reported as 368 ± 52 nM, the “mAChE RA (%)” value [1] is reported as 22% and the “hBChE RA (%)” value [2] is reported as 71%. For the same compound, the IC50 (MurA; IC50 ± SEM) was 14000 ± 5000 nM and the “MurA RA (%)” value (MurA) was 0%.

With `CC(C)(C)CCN(Cc1ccc(C#Cc2ccc(F)cc2)cc1)C(=O)c1ccc(C(=O)O)cc1` [Compound 3] the “mAChE RA (%)” value [1] was 100%, the “hBChE RA (%)” value [2] was 100% and the “MurA RA (%)” value (MurA) was 58%.

`CC(C)(C)CCN(Cc1ccc(C#Cc2ccc(F)cc2)cc1)C(=O)c1ccc(O)c(C(=O)O)c1` [Compound 6] was tested, and the IC50 [1] was 4800 ± 1300 nM, the “mAChE RA (%)” value [1] was 13% and the “hBChE RA (%)” value [2] was 95%. For the same compound, the IC50 (MurA; IC50 ± SEM) was 27000 ± 7000 nM and the “MurA RA (%)” value (MurA) was 0%.

For `COC(=O)c1cc(N(Cc2ccc(C#Cc3ccc(C(C)(C)C)cc3)cc2)CC2CC2)ccc1F` [Compound 9], the IC50 [1] was 1800 ± 450 nM, the “hBChE RA (%)” value [2] was 80% and the IC50 (MurA; IC50 ± SEM) was 91000 ± 13000 nM. For the same compound, the “MurA RA (%)” value (MurA) was 10%.

In the case of `Nc1c2c(nc3ccccc13)CCCC2` [Tacrine, reference compound], the “hBChE RA (%)” value ([2]; residual activity at 10 µM, Table 1) is reported as 0%.

For `C[C@H](NCc1ccc(OCc2cccc(F)c2)cc1)C(N)=O` [Safinamide, reference compound], the “hMAO-B RA [%]” value (hMAO-B) was 0%.

With `N#Cc1ccc2[nH]cc(CCCCN3CC=C(c4ccc5c(c4)OCC5)CC3)c2c1` [Compound 35] the remaining activity at 10 µM ([1]; Table 4) was 59%, the IC50 ([2]; Table 4, IC50 ± SEM) was 2900 ± 100 nM and the remaining activity at 10 µM [2, 3] was 31%.

`O=C(O)c1ccc2[nH]cc(CCCCN3CCc4c(c(=O)oc5ccccc45)C3)c2c1` [Compound 36] showed a remaining activity at 10 µM ([1]; Table 4) of 78% and a remaining activity at 10 µM [2, 3] of 97%.

`C1=C(c2cccc3ccccc23)CCN(CCCCc2c[nH]c3ccccc23)C1` [Compound 30] gave a remaining activity at 10 µM ([1]; Table 4) of 76%, an IC50 ([2]; Table 4, IC50 ± SEM) of 400 ± 57 nM and a remaining activity at 10 µM [2, 3] of 6%.

Work on `Fc1ccc2[nH]cc(CCCCN3CC=C(c4ccccc4)CC3)c2c1` [Compound 39] yielded an IC50 ([1]; Table 4, IC50 ± SEM) of 15000 ± 5000 nM, a remaining activity at 10 µM ([1]; Table 4) of 47% and an IC50 ([2]; Table 4, IC50 ± SEM) of 70 ± 5 nM. The remaining activity at 10 µM [2, 3] was 0%.

In the case of `C[C@@H]1O[C@@H]1P(=O)(O)O` [Fosfomycin, reference compound], the IC50 (MurA; IC50 ± SEM) is reported as 240 ± 20 nM and the “MurA RA (%)” value (MurA) is reported as 0%.

`OCC1=C(c2ccc(F)cc2)CCN(CCCCc2c[nH]c3ccccc23)C1` [Compound 34] gave an IC50 ([1]; Table 4, IC50 ± SEM) of 7000 ± 1000 nM, a remaining activity at 10 µM ([1]; Table 4) of 31% and an IC50 ([2]; Table 4, IC50 ± SEM) of 493 ± 88 nM. The remaining activity at 10 µM [2, 3] was 7%.

For `CCCCc1ccc(C#Cc2ccc(CN(C(=O)CC(C)(C)C)c3ccc(F)c(C(=O)O)c3)cc2)cc1` [Compound 1], the IC50 [1] was 1200 ± 50 nM, the “mAChE RA (%)” value [1] was 2% and the “hBChE RA (%)” value [2] was 100%. The “MurA IC50 (µM)” value (MurA; IC50 ± SEM) was “No clear dose-dependency” and the “MurA RA (%)” value (MurA) was 0%.

In the case of `Cc1ccc(C#Cc2ccc(CN(CCC(C)(C)C)c3ccc(O)c(C(=O)O)c3)cc2)cc1` [Compound 4], the “mAChE RA (%)” value [1] is reported as 100%, the “hBChE RA (%)” value [2] is reported as 100% and the IC50 (MurA; IC50 ± SEM) is reported as 102000 ± 15000 nM. For the same compound, the “MurA RA (%)” value (MurA) was 14%.

In the case of `CCCCCCN(Cc1ccc(C#Cc2ccc(CCCC)cc2)cc1)c1ccc(F)c(C(=O)OC)c1` [Compound 7], the IC50 [1] is reported as 682 ± 86 nM, the “mAChE RA (%)” value [1] is reported as 19% and the “hBChE RA (%)” value [2] is reported as 45%. For the same compound, the IC50 [2] was ~19700 nM and the “MurA RA (%)” value (MurA) was 100%.

`COC(=O)CNC(=O)c1ccc2[nH]cc(CCCCN3CC=C(c4ccccc4)CC3)c2c1` [Compound 38] showed a remaining activity at 10 µM ([1]; Table 4) of 100%, an IC50 ([2]; Table 4, IC50 ± SEM) of 319 ± 51 nM and a remaining activity at 10 µM [2, 3] of 4%.
